Consider nine compounds from PMC8877291, “Design and Synthesis of Arylpiperazine Serotonergic/Dopaminergic Ligands with Neuroprotective Properties” (Molecules, 2022).

Data set [1] addresses T1, serotonin 5-HT2A receptor (Homo sapiens, UniProt P28223).
T1 construct: expressed in transfected cells
The data set can be described thus: 5-HT2A receptor radioligand competition binding ([3H]-ketanserin). As to conditions: human cloned receptor, CHO-K1 membranes, 1 nM [3H]-ketanserin; ± S.E.M., n = 3 in duplicate; read-out: Affinity Ki 5-HT2A. On the technique in general: Displacement assays read how much labelled ligand stays bound in the presence of the test substance.

The nature of data set [2]: Cytotoxicity in SH-SY5Y cells (MTT assay). Type of data set: cell-based, human. As to conditions: human, SH-SY5Y neuroblastoma cells, MTT, 0.1 to 100 μM, ± S.E.M. The method, then: (§1) Initially, the cytotoxicity of the target compounds was assessed by treating SH-SY5Y cells for 48 h with various concentrations of compounds (0.1 to 100 μM).
(§2) SH-SY5Y neuroblastoma cells (cat. CRL-2266, ATCC) were cultured in a 1:1 mixture of Eagle’s Minimum Essential Medium (cat. 15-010-CVR, Corning) and Ham’s F12 medium (cat. 10-080-CVR, Corning). This medium was supplemented with 10% (v/v) Fetal Bovine Serum (cat. 35-079-CV, Corning), 1% (v/v) Glutamine (cat. ECB3000D, Euro Clone) and 1% (v/v) Penicillin—Streptomycin (cat.30-002-CI, Corning). Cells were cultivated at 37 °C with 5% CO2 at saturated humidity.
(§3) Determination of cell growth was performed using the MTT assay at 48 h. On day 1, 25,000 cells/well were seeded into 96-well plates in a volume of 100 μL. On day 2, the various drug concentrations ([…]–100 μM) were added. In all the experiments, the various drug-solvents (EtOH, DMSO) were added in each control to evaluate possible solvent cytotoxicity. After the established incubation time with drugs (48 h), MTT (0.5 mg/mL) was added to each well, and after 3–4 h incubation at 37 °C, the supernatant was removed. The formazan crystals were solubilized using 100 μL of DMSO/EtOH (1:1, v/v) and the absorbance values at 570 and 630 nm were determined on the microplate reader Victor 3 (PerkinElmer Life Sciences, Waltham, MA, USA).
(In general: Tetrazolium dyes change colour on reduction, which living cells bring about.)

Data set [3] in a line: Stability assay in rat liver microsomes. Type of data set: in vitro ADME. As to conditions: NADPH-regenerating system; for remaining at 30 min, 10 μM: pH 7.4, rat liver microsomes, 30 min incubation, read-out: Metabolic Stability (percentage of recovery of the parent compound); for in vitro metabolic stability (in words): rat microsomes, 30 min. As to the method: To evaluate the susceptibility to first-pass oxidative metabolism, the leading cause of metabolic degradation in vivo [17] the target compounds were incubated with rat liver microsomes. The turnover of the parent compound was assessed as the percentage of the parent compound recovered after 30 min of incubation with microsomes in the presence of an NADPH-regenerating system.
Test compounds were pre-incubated at 37 °C with rat liver microsomes (Tebu-Bio, Milan, Italy) (1.0 mg/mL microsomal protein) at 10 μM final concentration in 100 mM potassium phosphate buffer (pH 7.4) for 10 min. Metabolic reactions were initiated by the addition of the NADPH regenerating system (containing 10 mM NADP, 50 mM glucose-6-phosphate, and 10 unit/mL glucose-6-phosphate dehydrogenase, final glucose-6-phosphate dehydrogenase concentration, 1 unit/mL). After 30 min incubation, the reaction mixture was quenched by adding an equal volume of cold acetonitrile containing the internal standard. A test compound incubated with microsomes without NADPH regenerating system was included. Quenched samples were centrifuged at 4500 rpm for 15 min and the supernatants were injected for quantification analysis. Samples (100 μL) were analyzed by using an Agilent 1260 Infinity Binary LC System equipped with a diode array detector (Open Lab software was used to analyze the chromatographic data) and a Phenomenex Gemini C-18 column (250 mm × 4.6 mm, 5 μm particle size). The samples were eluted using CH3CN/20 mM ammonium formate pH 5.5 (7:3, v/v) as eluent (volumetric flow rate =1 mL/min). Concentrations were quantified by measuring the area under the peak.
The percentage of the parent compound remaining after a 30-min incubation was calculated according to the equation:% of parent compound remaining after 30 min = Cparent/Ccontrol × 100(1) where Cparent is ligand concentration after incubation with microsome fraction and NADPH regenerating system and Ccontrol is ligand concentration after incubation with microsome fraction only.
(Liver microsomes are a subcellular fraction often used to study metabolism.)

For a further data set, the target named is dopamine D2s receptor (Homo sapiens, UniProt P14416). Nature of the data set: Dopamine D2s receptor competition binding ([3H]spiperone).
Data set [4] concerns SH-SY5Y neuroblastoma cells. Nature of the data set: Neuroprotection against H2O2 in SH-SY5Y cells (MTT assay). As to conditions: 3 h pretreatment, both concentrations (1 μM and 5 μM), then 400 μM H2O2 24 h. Type of data set: cell-based, human. The method, then: Treatment of SH-SY5Y cells with 400 μM H2O2 for 24 h led to a reduction of cell viability of 72–76% (Figure 3). The protective effect of each compound was determined by pretreating the cells with the test compound for 3 h at the non-toxic doses of 1 μM and 5 μM, and subsequent treatment with 400 μM H2O2 for an additional 24 h.
as §2
Determination of neuroprotection against H2O2 was performed using the MTT assay at 24 h. On day 1, 25,000 cells/well were seeded into 96-well plates in a volume of 100 μL. On day 2, the cells were pretreated (3 h) with two drug concentrations (1 μM and 5 μM) before being incubated with 400 μM H2O2 for 24 h. In all the experiments, the various drug-solvents (EtOH, DMSO) were added in each control to evaluate a possible solvent cytotoxicity. After 24 h incubation, MTT (0.5 mg/mL) was added to each well, and after 3–4 h incubation at 37 °C, the supernatant was removed. The formazan crystals were solubilized using 100 μL of DMSO/EtOH (1:1, v/v) and the absorbance values at 570 and 630 nm were determined on the microplate reader Victor 3 from PerkinElmer Life Sciences (Waltham, MA, USA).
Data were analyzed by applying the one-way repeated measures analysis of variance, and Bonferroni’s multiple comparison test followed as a post hoc test. Results are reported as mean SD of at least two to three independent experiments, performed in triplicate. Statistical significance was accepted at p < 0.05.

Data set [5] deals with SH-SY5Y neuroblastoma cells. The data set can be described thus: Cytotoxicity in SH-SY5Y cells (MTT assay). Type of data set: cell-based, human. As to conditions: 48 h, dose range 0.1 to 100 μM. The method, then:
as §1, §2, §3

Bounds are passed on as bounds.

T1 sequence (P28223 whole entry): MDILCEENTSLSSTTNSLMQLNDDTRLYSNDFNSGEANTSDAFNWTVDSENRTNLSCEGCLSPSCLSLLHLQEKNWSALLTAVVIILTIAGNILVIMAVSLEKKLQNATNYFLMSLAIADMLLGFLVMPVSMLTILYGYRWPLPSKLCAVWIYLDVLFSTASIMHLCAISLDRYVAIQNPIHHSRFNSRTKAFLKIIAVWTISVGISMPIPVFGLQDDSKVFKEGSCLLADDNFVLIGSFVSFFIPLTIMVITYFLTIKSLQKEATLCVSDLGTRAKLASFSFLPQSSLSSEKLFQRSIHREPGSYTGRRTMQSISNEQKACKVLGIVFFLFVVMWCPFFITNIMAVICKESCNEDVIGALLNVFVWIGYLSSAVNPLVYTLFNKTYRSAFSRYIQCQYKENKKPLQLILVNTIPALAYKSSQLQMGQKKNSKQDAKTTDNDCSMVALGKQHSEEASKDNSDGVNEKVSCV
Chain of dopamine D2s receptor (P14416 1-414 isoform P14416-2): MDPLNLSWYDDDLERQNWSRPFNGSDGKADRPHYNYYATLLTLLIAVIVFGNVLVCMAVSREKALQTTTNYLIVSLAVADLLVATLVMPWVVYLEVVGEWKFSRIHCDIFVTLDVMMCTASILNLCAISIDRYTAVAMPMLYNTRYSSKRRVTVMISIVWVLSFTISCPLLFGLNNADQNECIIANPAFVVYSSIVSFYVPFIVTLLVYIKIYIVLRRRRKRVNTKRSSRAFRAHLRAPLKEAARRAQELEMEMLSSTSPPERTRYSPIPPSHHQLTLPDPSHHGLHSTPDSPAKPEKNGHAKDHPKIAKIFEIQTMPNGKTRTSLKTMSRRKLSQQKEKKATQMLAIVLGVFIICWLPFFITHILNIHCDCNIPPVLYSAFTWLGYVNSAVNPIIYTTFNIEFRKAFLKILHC
Procedure for dopamine D2s receptor: Radioactivity was measured by liquid scintillation counting.
Competition binding experiments at dopamine D2s and D3 receptor were performed to determine the affinity of the compounds. […] Membrane preparations of transfected CHO-K1 cells stably expressing the human D2s or D3 receptor were performed according to Bautista-Aguilera et al. [26]. The competition binding experiments were conducted as previously reported [26, 27]. Briefly, membrane fractions (D2sR: 25 µg/200 µL; D3R: 20 µg/200 µL) were incubated with [^3H]spiperone (0.2 nM) and test compound for 120 min at room temperature. […] Non-specific binding was determined in the presence of 10 µM haloperidol. Haloperidol was also used as reference compound. Separation of the bound ligand from the free ligand was conducted by filtration through GF/B filters using deionized water.
Data of at least three independent experiments in triplicate were analyzed using GraphPad Prism 8.1 (San Diego, CA, USA). Binding curves were fitted to a non-linear regression model (one-site competition). Ki values were calculated from IC50 values using the Cheng–Prusoff equation. The statistical calculations were performed on –log(Ki).

A word on the Ki: it is the equilibrium dissociation constant of an inhibitor or competing ligand from its target. For orientation: EC50 means the concentration that produces a half-maximal response. Low readings indicate a more potent agent, high ones a less potent agent. As to `Cc1cc(=O)oc2cc(OCCCCN3CCN(c4ncccc4-c4ccncc4)CC3)ccc12` [Compound 12b, 7-(4-(4-([3,4’-Bipyridin]-2-yl)piperazin-1-yl)butoxy)-4-methyl-2H-chromen-2-one], the Ki in data set [1] was approximately 1.42 µM; at dopamine D2s receptor, 0.017 µM. Moreover, the midpoint of the response in data set [2], the EC50 at 48 h, lay at 47.9 ± 3.5 µM. In data set [3], the remaining at 30 min, 10 μM turned out to be 14%.

Regarding `Cn1c(=O)cnn(CCCN2CCN(c3ccc(F)cc3-c3ccc(C#N)cc3)CC2)c1=O` [Compound 10a, 5’-Fluoro-2’-(4-(3-(4-methyl-3,5-dioxo-4,5-dihydro-1,2,4-triazin-2(3H)-yl)propyl)piperazin-1-yl)-[1,1’-biphenyl]-4-carbonitrile], the Ki is 0.0968 ± 0.011 µM in data set [1] and more than 10 µM on dopamine D2s receptor. Besides, in data set [2], the EC50 at 48 h was determined as 28.2 ± 3.2 µM. Also, the remaining at 30 min, 10 μM in data set [3] was determined as 5%.

As for `COc1ccc(-c2cc(F)ccc2N2CCN(CCCCn3ncc(=O)n(C)c3=O)CC2)cc1` [Compound 9b, 2-(4-(4-(5-Fluoro-4’-methoxy-[1,1’-biphenyl]-2-yl)piperazin-1-yl)butyl)-4-methyl-1,2,4-triazine-3,5(2H,4H)-dione], the Ki was 0.0394 ± 0.0074 µM in data set [1] and more than 10 µM at dopamine D2s receptor. Moreover, a half-maximal effect in data set [2] (EC50 at 48 h) was put at 51.9 ± 4.3 µM. Further, the “recovery of cell viability vs 400 μM H2O2 alone (in words)” value in data set [4] is given as “statistically significant recovery of cell viability”. In data set [3], the remaining at 30 min, 10 μM worked out at 45%.

For the compound `CC1Oc2ccc(OCCCN3CCN(c4ncccc4-c4ccncc4)CC3)cc2NC1=O` (stereo not shown) [Compound 8a, 6-(3-(4-([3,4’-Bipyridin]-2-yl)piperazin-1-yl)propoxy)-2-methyl-2H-benzo[b][1,4]oxazin-3(4H)-one], the Ki in data set [1] was 0.782 ± 0.119 µM; on dopamine D2s receptor, 0.388 µM. Moreover, the response in data set [2] was half-maximal at 32.9 ± 3.5 µM (EC50 at 48 h). The “recovery of cell viability vs 400 μM H2O2 alone (in words)” value in data set [4] is “statistically significant recovery of cell viability”. In addition, the remaining at 30 min, 10 μM in data set [3] came to 4%.

Take `Cn1c(=O)cnn(CCCCN2CCN(c3ncccc3-c3ccncc3)CC2)c1=O` [Compound 11b, 2-(4-(4-([3,4’-Bipyridin]-2-yl)piperazin-1-yl)butyl)-4-methyl-1,2,4-triazine-3,5(2H,4H)-dione]: the Ki (in data set [1]; at dopamine D2s receptor) was more than 10 µM in each case. The compound further displayed a 50% effective concentration (EC50) at 48 h in data set [2] of more than 100 µM. Also, in data set [5], the “cytotoxicity (in words)” value is given as “not cytotoxic”. The remaining at 30 min, 10 μM in data set [3] was determined as 3%.

As for `Cc1cc(=O)oc2cc(OCCCN3CCN(c4ncccc4-c4ccncc4)CC3)ccc12` [Compound 12a, 7-(3-(4-([3,4’-Bipyridin]-2-yl)piperazin-1-yl)propoxy)-4-methyl-2H-chromen-2-one], the figures for the inhibition constant (Ki) (in data set [1]; on dopamine D2s receptor) were 0.315 ± 0.044 µM and 0.3 µM, respectively. Besides, the EC50 at 48 h in data set [2] worked out at 35.2 ± 4.1 µM. For the same compound, the remaining at 30 min, 10 μM in data set [3] turned out to be 19%. The “in vitro metabolic stability (in words)” value in data set [3] is “borderline stability value”.

Consider `Cn1c(=O)cnn(CCCN2CCN(c3ncccc3-c3ccncc3)CC2)c1=O` [Compound 11a, 2-(3-(4-([3,4’-Bipyridin]-2-yl)piperazin-1-yl)propyl)-4-methyl-1,2,4-triazine-3,5(2H,4H)-dione], for which the inhibition constant Ki (in data set [1]; at dopamine D2s receptor) was more than 10 µM each time. The EC50 at 48 h in data set [2] was more than 100 µM. In data set [5], the “cytotoxicity (in words)” value is on record as “not cytotoxic”. For the same compound, in data set [3], the remaining at 30 min, 10 μM was found to be 4%.

Regarding `CC1Oc2ccc(OCCCCN3CCN(c4ncccc4-c4ccncc4)CC3)cc2NC1=O` (stereo not shown) [Compound 8b, 6-(4-(4-([3,4’-Bipyridin]-2-yl)piperazin-1-yl)butoxy)-2-methyl-2H-benzo[b][1,4]oxazin-3(4H)-one], the inhibition constant Ki in data set [1] was found to be 0.611 ± 0.087 µM; at dopamine D2s receptor, 0.00908 µM. Besides, in data set [2], the EC50 at 48 h was found to be 25.5 ± 2.2 µM. In addition, in data set [4], the “recovery of cell viability vs 400 μM H2O2 alone (in words)” value is “statistically significant recovery of cell viability”. Besides, the remaining at 30 min, 10 μM in data set [3] turned out to be 14%.

As for `Cn1c(=O)cnn(CCCCN2CCN(c3ccc(F)cc3-c3ccc(C#N)cc3)CC2)c1=O` [Compound 10b, 5’-Fluoro-2’-(4-(4-(4-methyl-3,5-dioxo-4,5-dihydro-1,2,4-triazin-2(3H)-yl)butyl)piperazin-1-yl)-[1,1’-biphenyl]-4-carbonitrile], the Ki in data set [1] came out at 0.0807 ± 0.0031 µM. This compound also yielded a concentration giving a half-maximal response (EC50) at 48 h in data set [2] of 34.3 ± 2.5 µM. In data set [3], the remaining at 30 min, 10 μM is 26% and the “in vitro metabolic stability (in words)” value was “borderline stability value”. The compound also displayed a Ki on dopamine D2s receptor of more than 10 µM.
